Assay results published in US11229628B2, “TRPA1 and TRPV4 inhibitors and methods of using the same for organ-specific inflammation and itch” (Duke University, priority 2015, dated 2022).
Entries after “also recorded” stand apart in the source; their conditions may differ.

Key:
[1] = Stability on incubation in serum; type: in vitro ADME; settings: 3 h and 12 h incubation in serum at 37° C.
Protocol: It was also tested whether compounds are readily broken down in systemic fluid, for which serum was used.

[2] = system: primary mouse epidermal keratinocytes (1° MK); test: UVB-evoked Ca++ signaling in primary mouse keratinocytes (fluo-4 imaging); type: cell-based
Protocol: Ca++ imaging of 1° MK was conducted following routine procedures. For UVB stimulation, a customized device was built. The system comprised a printed circuit board for electrical interconnects and mechanical support and an ultraviolet light-emitting diode (UV LED).
The operating wavelength was 295 nm (FIG. 2A), with a full-width half-max of 12 nm. The optical power was 500 mW. The focal point was aimed at the plane of the upper surface of the quartz coverslip, which was used to minimize UV absorption along the optical path towards the cells (FIG. 2A-C). The optical intensity at the focal point was estimated to be 150 mW/mm^2.
Ca++ imaging of mouse 1° MK in response to chemical activation of TRPV4 was conducted after loading with 2 μM fura2-AM, following a ratiometric Ca2+ imaging protocol with 340/380 nm […] for dual excitation. Ratios of emissions were acquired at 0.5 Hz. ΔR/R0 was determined as the fraction of the increase of a given ratio over baseline ratio, divided by baseline ratio. For stimulation of cells with UVB, where fura-2 was not suitable because of the proximity of stimulation with 340/380 nm and 295 nm, 2 μM fluo4-AM was used instead. Ca++ imaging was carried out at 488 nm excitation, acquisition of emissions at 0.5 Hz, expressed as ΔF/F0. In the custom-built UV optical system, UV LEDs were capped with a ball lens, a transparent optical window in the shape of a hemispherical lens (FIG. 2B). The LED output optical beam focused at 15-20 mm from the lens, with a spot diameter of approximately 1.5˜2.0 mm (FIG. 2C). […] The thermal equilibration stage was set for physiological temperature.
To further dissect the underlying mechanisms involved, we built a customized device for specific and narrow-band UVB stimulation of primary mouse epidermal keratinocytes (1° MK) cultured in vitro (FIG. 6A-B and FIG. 2A-D). This allowed use of the Ca++ sensitive dye, fluo-4, and assessment of 1° MK's Ca++ dynamics following UVB exposure (FIG. 6B). The elicited Ca++ signal was obliterated by a UV-refracting glass coverslip, underscoring the strict dependence of the calcium response on UVB (FIG. 6C and FIG. 2A).

[3] = system: mouse primary keratinocytes; test: Histamine receptor-mediated Ca++ transients in mouse primary keratinocytes (fura-2); type: cell-based
Protocol: Mouse primary keratinocytes were prepared as described in Moore et al. (Proc Natl Acad Sci USA, 2013, 110, E3225-3416). Cells were pre-treated, for 10 min with 10 μM GSK205. Then 100 μM of each, histamine, 2-Pyridylethylamine (selective activator for H1R), and 4-Methylhistamine (selective activator for H4R; both H1R and H4R known to be expressed in rodent and human keratinocytes), were applied, and fura-2 loaded keratinocytes were imaged ratiometrically, as described (Moore et al. Proc Natl Acad Sci USA, 2013, 110, E3225-3416; Li, et al. Environ Health Perspect, 2011, 119, 784-9316). Shown in blue (top curve) is the average signal of ≥75 cells. Note the robust signal for histamine, and in response to selective activator of H1R, less prominent for H4R, in keeping with previous findings on expression levels of these channels in keratinocytes.

IL-1β secretion by 1° MK = test: IL-1β secreted by cultured keratinocytes after UVB exposure (ELISA); type: cell-based, mouse; settings: 5 μM GSK205
Protocol: Before UV irradiation, culture media was replaced with PBS. The cells were then irradiated at a dose of 50 mJ/cm^2 with UVB. 24 hours later, supernatants were assayed using IL-1β ELISA (R&D Systems, Minneapolis, Minn.).
We also tested the response of down-stream UVB effector mechanisms to GSK205 treatment in vivo.

histamine-Ca++ response ([3]; 10 μM GSK205 10 min pre-treatment, 100 μM histamine) | Ca++ response to activation of H1R ([3]; 10 μM GSK205, 100 μM 2-Pyridylethylamine) | Ca++ response to H4R ([3]; 10 μM GSK205, 100 μM 4-Methylhistamine) | Compound | concentration of a fixed spiked amount after incubation in serum [1] | ET1-augmented UVB-evoked Ca++ signaling ([2]; UVB and ET1 co-exposure) | UVB-evoked Ca++ signaling ([2]; fluo-4 ΔF/F0, GSK205 20 μM) | UVB-induced increase in IL-1β secretion by 1° MK (IL-1β secretion by 1° MK)
– | – | – | CN(CCc1ccc(Nc2nc(-c3ccccc3)cs2)cc1)Cc1ccccc1 [Compound 16-8] | did not change | – | – | –
eliminated completely | eliminated completely | significantly attenuated | CN(CCc1ccc(Nc2nc(-c3cccnc3)cs2)cc1)Cc1ccccc1 [GSK205] | – | greatly diminished | very similar response to that of Trpv4−/− 1° MK; also recorded: strongly down-regulated; also recorded: significant attenuation | completely eliminated; also recorded: prevention of increase in IL-1β secretion
